# PMC6705415 (Nature structural & molecular biology, 2019)
# Substitutions are numbered along the chain they refer to.
# Assays:
# [1] = system: hENT1 Gly154 mutated to serine; conditions: Gly154 to serine mutation in hENT1 versus wild type; cited from earlier work
# [2] = target: T1, hENT1 Met33Ile (hENT1cryst background) (Homo sapiens, UniProt Q99808, DEL243-274/L168F/M33I/N288K/P175A); assay: Cold dilazep displacement of 3H-NBMPR; assay type: binding; conditions: Met33Ile relative to hENT1cryst; displacement of 100 nM 3H-NBMPR
# T1 sequence (Q99808 with tags, fused parts or gaps M33I/L168F/P175A/DEL243-274/N288K): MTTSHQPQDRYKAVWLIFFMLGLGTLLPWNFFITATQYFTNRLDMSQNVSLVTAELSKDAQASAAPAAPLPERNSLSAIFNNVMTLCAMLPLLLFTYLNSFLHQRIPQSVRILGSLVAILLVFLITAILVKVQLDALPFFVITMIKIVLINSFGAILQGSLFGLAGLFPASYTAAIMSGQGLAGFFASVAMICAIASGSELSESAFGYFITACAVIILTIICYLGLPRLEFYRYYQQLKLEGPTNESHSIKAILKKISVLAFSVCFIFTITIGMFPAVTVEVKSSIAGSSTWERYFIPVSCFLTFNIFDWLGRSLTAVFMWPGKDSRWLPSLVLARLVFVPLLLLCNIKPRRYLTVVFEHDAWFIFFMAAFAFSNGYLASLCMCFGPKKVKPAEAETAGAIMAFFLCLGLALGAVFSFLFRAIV
# [3] = target: T2, hENT1 Phe307Ala (hENT1cryst background) (Homo sapiens, UniProt Q99808, DEL243-274/F307A/L168F/N288K/P175A); assay: Cold dilazep displacement of 3H-NBMPR; assay type: binding; conditions: Phe307Ala relative to hENT1cryst; displacement of 100 nM 3H-NBMPR
# T2 sequence (Q99808 with tags, fused parts or gaps L168F/P175A/DEL243-274/N288K/F307A): T1 sequence (Q99808 with tags, fused parts or gaps M33I/L168F/P175A/DEL243-274/N288K) with I33M, F275A
# [4] = target: T3, hENT1 Phe307Tyr (hENT1cryst background) (Homo sapiens, UniProt Q99808, DEL243-274/F307Y/L168F/N288K/P175A); assay: Cold dilazep displacement of 3H-NBMPR; assay type: binding; conditions: Phe307Tyr relative to hENT1cryst; displacement of 100 nM 3H-NBMPR
# T3 sequence (Q99808 with tags, fused parts or gaps L168F/P175A/DEL243-274/N288K/F307Y): T1 sequence (Q99808 with tags, fused parts or gaps M33I/L168F/P175A/DEL243-274/N288K) with I33M, F275Y
SMILES,decrease in NBMPR inhibitory potency [1],increase in apparent Kd for dilazep [2],increase in apparent Kd for dilazep [3],decrease in apparent Kd for dilazep [4]
"O=[N+]([O-])c1ccc(CSc2ncnc3c2ncn3[C@@H]2O[C@H](CO)[C@@H](O)[C@H]2O)cc1 [NBMPR, S-(4-Nitrobenzyl)-6-thioinosine]","~ 2,500 fold",,,
COc1cc(C(=O)OCCCN2CCCN(CCCOC(=O)c3cc(OC)c(OC)c(OC)c3)CC2)cc(OC)c1OC [dilazep],,~ 3 fold,~ 90 fold,~ 4 fold
